Data as given in patent publication US20030125323A1, “Use of selective potassium channel openers” (priority 2001, published 2003).

What was measured:
[1] = system: women with Polycystic Ovary Syndrome (PCOS); settings: Nestler et al. 1989; cited from earlier work
[2] = system: KATP-channels on pancreatic β-cells; settings: by activation of KATP-channels on pancreatic β-cells; Pirotte et al. 1993, 1994; cited from earlier work
[3] = system: obese female hyperinsulinemic nondiabetic Zucker rats; assay: oral glucose tolerance test after 35 days treatment of obese Zucker rats; assay type: in vivo, rat; settings: FIG. 1
Protocol: 14 obese female hyperinsulinemic nondiabetic Zucker rats were treated with the test compound 6-chloro-3-(1-methylcylodopropyl)amino-4H-thieno[3,2-e]-1,2,4-thiadiazine 1,1-dioxide and 14 were treated with vehicle for 35 days. After treatment, oral glucose tolerance was tested and found to be improved in animals treated with 6-chloro-3-(1-methylcylodopropyl)amino-4H-thieno[3,2-e]-1,2,4-thiadiazine 1,1-dioxide and the improvement was associated with decreased hyperinsulinemia.

Row | SMILES | concentrations of serum testosterone [1] | glycaemia (adverse effect due to the reduction in insulin) [1] | hyperinsulinaemia [1] | insulin release [2] | hyperinsulinemia ([3]; associated with the improved glucose tolerance) | oral glucose tolerance ([3]; compared with vehicle)
1 | CC1=Nc2ccc(Cl)cc2S(=O)(=O)N1 [diazoxide, 7-chloro-3-methyl-2H-1,2,4-benzothiadiazine 1,1-dioxide] | reduce | significantly hyperglycemic | reduce | inhibit | – | –
2 | CC1(NC2=NS(=O)(=O)c3sc(Cl)cc3N2)CC1 [6-chloro-3-(1-methylcylodopropyl)amino-4H-thieno[3,2-e]-1,2,4-thiadiazine 1,1-dioxide] | – | – | – | – | decreased | improved
